US12347214B2, “Microspore culture predictive model generation and use” (PIONEER HI-BRED INTERNATIONAL, INC., priority 2019, dated 2025)

How the values were obtained:
plant cells = assay: Staining of plant cells with fluorescent dye, continued cell development; format: cell-based; details: dye added at the beginning of the culture; plant cells continued to develop
Description: (§1) In the embodiment described herein, the fluorescent dye BODIPY 564/70, which stains both cell membranes and subcellular compartments, such as vacuoles, was used. […] BODIPY 564/70 is non-toxic to plant cells, so the plant cells continued to develop. BODIPY 564/70 is also very stable in cell culture conditions, so supplementation of the dye at the beginning of the culture was sufficient to generate informative images until the end point of the analysis. Other dyes, combinations of dyes, such as CFDA and FM4-64, and combinations of dyes with fluorescent protein markers, may also be used with the present method in order to generate different images. Options for fluorescent imaging include imaging cells that comprise fluorescent proteins, such as green (GFP), blue (EBFP, EBFP2, Azurite, mKalama1), cyan (ECFP, Cerulean, CyPet, mTurquoise2), red (dsRed, mCherry, tomato, etc.), far-red (mIFP, iBlueberry etc.) and yellow (YFP, Citrine, Venus, YPet). Plant cell stain techniques are known in the art, for example, see Ruzin, S. E. Plant Microtechnique and Microscopy. New York: Oxford University Press. ISBN 0195089561 (1999).

[1] = Dye stability in cell culture conditions; format: physicochemical; details: supplementation at beginning of culture sufficient until end point of analysis
Description: as §1

[2] = test system: AtWOX2pro::CENH3-GFP activity in transgenic canola microspores; assay: AtWOX2pro::CENH3-GFP reporter activity in canola microspore culture with inducing agent; format: cell-based; details: with trichostatin A treatment
Description: The methods described above for corn may also be adapted for use with other crops and for use with a reporter gene. As proof of concept, Canola microspore cells were obtained from a plant line that had been transformed with a green fluorescent protein reporter gene fused to a plant developmental gene with an effect on plant histones. While transformation was used in this case, other known gene insertion techniques such as CRISPR may be used to insert the reporter gene into the plant genome. A stable homozygous Canola line with the AtWOX2pro::CENH3-GFP fusion protein was developed. This protein attaches to plant histones, associates with plant chromocenters and can be used to determine chromosome number. GFP served as the reporter gene, although any reporter gene could also be used. This stable transgenic line was used to generate a microspore for in vitro tissue culture. Trichostatin A, a histone deacetylase inhibitor known to alter the embryogenic potential of dicot microspores was used as the inducing agent.

stability in cell culture conditions [1]	Compound	toxicity to plant cells (plant cells)	detection of AtWOX2pro::CENH3-GFP activity ([2]; first timepoint)	detection of AtWOX2pro::CENH3-GFP activity ([2]; second time point)
very stable	BODIPY 564/70	non-toxic		
	CC(/C=C/C(=O)NO)=C\[C@@H](C)C(=O)c1ccc(N(C)C)cc1 [trichostatin A, Trichostatin A]		no or very low detection	increased detection
